{"source": "patent US20040229960A1", "about": "“Compositions and methods of administering tubulin binding agents for the treatment of ocular diseases” (priority 2001, published 2004)", "key": {"[1]": {"assay": "Primary ocular irritation, sub-Tenon's injection", "type": "in vivo, rabbits", "settings": "for Ocular irritation vs negative control eyes: two 0.1 ml sub-Tenon's injections, 24-72 h", "procedure": "The test article, CA4P, was evaluated for primary ocular irritation. Two 0.1 ml injections of the appropriate CA4P concentration (0.1, 1.0, 10 and 100 mg/ml) were injected into the sub-Tenon's space of the right eye of two rabbits. A 0.2 ml portion of buffered saline solution was injected into the sub-Tenon's space of the left eyes to serve as a negative control. Ocular reactions were evaluated at 24, 48 and 72 hours after the sample instillation. On day 3, rabbits were euthanized and eyes were removed. The specimens were fixed and embedded, and histology was performed. Histopathologic changes in the eye tissues were recorded with an emphasis placed on examination of changes in the sub-Tenon's space."}, "[2]": {"assay": "Biodistribution of 14C-CA4P following sub-Tenon's injection", "type": "in vivo, New Zealand rabbits", "procedure": "(§1) ^14C-CA4P (OXiGENE Inc., Watertown, Mass.) was resuspended in 100 ul volume of saline solution and injected with a 30 G needle into the right eyes of anesthesized male New Zealand rabbits (4 months old, 1.8-2.5 kg, n=3 per sample). Three different concentrations of ^14C-CA4P were tested (1, 10, 100 mg/ml) corresponding to doses of 1, 5, and 5 uCi of applied radioactivity respectively. A blank control group was also included. Rabbits were anaesthetized at 1, 6, 24, and 48 hours for blood sampling. After blood collection, the animals were euthanized by Phenobarbital injection and the treated right eyes were removed from all test animals. Ocular tissue samples were dissected from the cornea, aqueous humor, vitreous humor, choroid, or retina, placed in 20-mi glass scintillation vials, vortexed, and incubated for 24 hrs with 500 ul digesting fluid. Plasma was separated from whole blood by centrifugation (1,800 g for 10 minutes). Both ocular tissue samples and plasma were incubated at room temperature with 16 ml of Hionic Fluor™ scintillation fluid for a period of 24 hours prior to radioactivity counting. Each sample was counted for 5 minutes in a Betamatic V counter (Bio-Tek Kontron Instruments, St Quentin en Yvelines, France). The conversion of counts per minute (“cpm”) into disintegrations per minute (“dpm”) was performed automatically by the beta-counter, using calibration curves obtained from ^14C-standards and quenching curves from the respective blank matrices spiked with ^14C-standards. The concentration of drug was determined according to nanogram equivalents of CA4P (ng-Eq/g of tissue) which was calculated from the measured dpm value, the weight of the tissue specimen, and the specific activity of the drug (0.37 mCi/mg), followed by subtraction of the corresponding background value from control eye tissue. A tissue concentration of 1 uM CA4P is equal to […] tissue."}, "[3]": {"assay": "Biodistribution of 14C-CA4P following topical administration of a solution formulation", "type": "in vivo, New Zealand rabbits", "procedure": "as §1\nTopical gels and solutions were developed for use as topical formulation suitable for the topical delivery of CA4P to the surface of the eye. Topical solutions (1, 3, and 10%) was directly prepared in 0.9% NaCl (Aguettant, Lyon, France) and sterilized with 0.2 um filter (pH 6.4 to 8.5, osmolarity 290 to 459 mosmol/kg H2O. Low viscosity topical gels (1,3,and 10%) were prepared in 0.5% carboxymethylcellulose (Sigma Aldrich Chimie, St. Quentin Fallavier Cedex, France) with 0.9% NaCl. The physicochemical specifications of each gel are listed in Table 5\nTopical formulations were applied to the surface of right eyes at an applied dose of 5 uCi in a volume of 50 ul. Cornea was sampled instead of sclera. Samples were taken at […] and 24 hours."}, "[4]": {"test_system": "choroidal neovascularization", "assay": "Krypton laser murine model of choroidal neovascularization", "type": "in vivo, C57BL/6J mouse", "settings": "for Average Vessel Lumen Area: vehicle 0.0129886", "procedure": "Choroidal neovascularization is a major cause of severe vision loss in patients with age-related or wet macular degeneration. To investigate the capacity of CA4P to inhibit vascular growth in the choroids, a murine model of Choroidal Neovascularization was tested. In this model the investigator used a krypton laser to create a wound on the Bruch's membrane of a C57BL/6J mouse. Each eye received several burns. The burn elicited a classic wound-healing response that included neovascularization within the choroid. This krypton laser photocoagulation method has been described in Tobe et al., Am. J. of Pathology, 1998, 153(5):1641-6. […] Histopathology and fluorescein angiography were used to identify neovascularization surrounding the burn. Electron microscopy was used to measure the lumen diameter of fenestrated neovasculature within the choroidal neovascular lesions. Table 12 illustrates the results of CA4P treatment on the average vessel lumen area."}}, "data": [{"smiles": "COc1ccc(/C=C\\c2cc(OC)c(OC)c(OC)c2)cc1OP(=O)([O-])[O-].[Na+].[Na+]", "note": "[CA4P, combretastatin A4 disodium phosphate]", "values": [{"measurement": "Ocular irritation vs negative control eyes", "setting": "[1]; 0.1 and 1.0 mg/ml", "value": "no irritation was observed"}, {"measurement": "Ocular irritation vs negative control eyes", "setting": "[1]; 10 and 100 mg/ml", "value": "Slight irritation was observed"}, {"measurement": "Irritation (Draize Scores)", "setting": "[1]; Sub-Tenon's, 0-10 mg", "value": "No Irritation"}, {"measurement": "Cmax", "setting": "[2]; aqueous humor, 1 mg/ml sub-Tenon's", "value": 300, "unit": "nM"}, {"measurement": "Cmax", "setting": "[2]; aqueous humor, 10 mg/ml sub-Tenon's", "value": 1800, "unit": "nM"}, {"measurement": "Cmax", "setting": "[2]; aqueous humor, 100 mg/ml sub-Tenon's", "value": 5920, "unit": "nM"}, {"measurement": "Cmax", "setting": "[2]; choroid, 1 mg/ml sub-Tenon's", "value": 1200, "unit": "nM"}, {"measurement": "Cmax", "setting": "[2]; choroid, 10 mg/ml sub-Tenon's", "value": 6200, "unit": "nM"}, {"measurement": "Cmax", "setting": "[2]; choroid, 100 mg/ml sub-Tenon's", "value": 861000, "unit": "nM"}, {"measurement": "Cmax", "setting": "[2]; plasma, 1 mg/ml sub-Tenon's", "value": 70, "unit": "nM"}, {"measurement": "Cmax", "setting": "[2]; plasma, 10 mg/ml sub-Tenon's", "value": 490, "unit": "nM"}, {"measurement": "Cmax", "setting": "[2]; plasma, 100 mg/ml sub-Tenon's", "value": 9300, "unit": "nM"}, {"measurement": "Concentration of drug delivered", "setting": "[2]; retina and choroid, 100 and 10 mg/ml, sub-Tenon's", "value": "> 1000", "unit": "nM"}, {"measurement": "Cmax", "setting": "[2]; retina, 1 mg/ml sub-Tenon's", "value": 850, "unit": "nM"}, {"measurement": "Cmax", "setting": "[2]; retina, 10 mg/ml sub-Tenon's", "value": 7100, "unit": "nM"}, {"measurement": "Cmax", "setting": "[2]; retina, 100 mg/ml sub-Tenon's", "value": 171000, "unit": "nM"}, {"measurement": "Time of highest concentrations of drug in the eye", "setting": "[2]; sub-Tenon's injection", "value": "within the first hour"}, {"measurement": "Cmax", "setting": "[2]; vitreous, 1 mg/ml sub-Tenon's", "value": 19, "unit": "nM"}, {"measurement": "Cmax", "setting": "[2]; vitreous, 10 mg/ml sub-Tenon's", "value": 130, "unit": "nM"}, {"measurement": "Cmax", "setting": "[2]; vitreous, 100 mg/ml sub-Tenon's", "value": 3900, "unit": "nM"}, {"measurement": "Cmax", "setting": "[3]; aqueous humor, 1% topical solution", "value": 600, "unit": "nM"}, {"measurement": "Cmax", "setting": "[3]; aqueous humor, 3% topical solution", "value": 1900, "unit": "nM"}, {"measurement": "Cmax", "setting": "[3]; aqueous humor, 10% topical solution", "value": 4100, "unit": "nM"}, {"measurement": "Cmax", "setting": "[3]; choroid, 1% topical solution", "value": 870, "unit": "nM"}, {"measurement": "Cmax", "setting": "[3]; choroid, 3% topical solution", "value": 1900, "unit": "nM"}, {"measurement": "Cmax", "setting": "[3]; choroid, 10% topical solution", "value": 15600, "unit": "nM"}, {"measurement": "Cmax", "setting": "[3]; cornea, 1% topical solution, 50 ul", "value": 10000, "unit": "nM"}, {"measurement": "Cmax", "setting": "[3]; cornea, 3% topical solution, 50 ul", "value": 34000, "unit": "nM"}, {"measurement": "Cmax", "setting": "[3]; cornea, 10% topical solution, 50 ul", "value": 104000, "unit": "nM"}, {"measurement": "Concentration of drug delivered", "setting": "[3]; cornea, all three solution formulations", "value": "> 1000", "unit": "nM"}, {"measurement": "Cmax", "setting": "[3]; plasma, 1% topical solution", "value": 70, "unit": "nM"}, {"measurement": "Cmax", "setting": "[3]; plasma, 3% topical solution", "value": 840, "unit": "nM"}, {"measurement": "Cmax", "setting": "[3]; plasma, 10% topical solution", "value": 1270, "unit": "nM"}, {"measurement": "Cmax", "setting": "[3]; retina, 1% topical solution", "value": 270, "unit": "nM"}, {"measurement": "Cmax", "setting": "[3]; retina, 3% topical solution", "value": 390, "unit": "nM"}, {"measurement": "Cmax", "setting": "[3]; retina, 10% topical solution", "value": 4200, "unit": "nM"}, {"measurement": "Time of highest concentrations of drug in the eye", "setting": "[3]; topical solution", "value": "within the first hour"}, {"measurement": "Average Vessel Lumen Area", "setting": "[4]; 10 mg/kg", "value": 0.01186, "unit": "mm^2"}, {"measurement": "Average Vessel Lumen Area", "setting": "[4]; 20 mg/kg", "value": 0.01101, "unit": "mm^2"}, {"measurement": "Average Vessel Lumen Area", "setting": "[4]; 100 mg/kg IP", "value": 0.007612, "unit": "mm^2"}, {"measurement": "Less vascular lumen area compared to saline", "setting": "[4]; 100 mg/kg/day IP", "value": "approximately 50%"}]}]}
